Activity calls are given as the source filed them. The calls are words filed in the database; no cut-off is given here.
What was measured:
[1] = Metabolic stability in human liver microsomes assessed as parent compound remaining preincubated for 5 mins followed by NADPH addition and measured after 30 mins by LC-MS/MS analysis; assay type: ADME, Microsome; settings: read-out: Stability
[2] = Permeability coefficient of the compound across blood brain barrier at pH 7.4 incubated for 4 hrs by PAMPA assay; assay type: ADME; settings: read-out: permeability
[3] = C0 in rat plasma at 2 mg/kg, iv measured after 24 hrs by HPLC-UV method; assay type: ADME, organism-based
[4] = Cmax in rat plasma at 10 mg/kg, po measured after 24 hrs by HPLC-UV method; assay type: ADME, organism-based; parameters: time 24 hrs, dose 10 mg/kg, route po
[5] = Cmax in rat plasma at 20 mg/kg, po measured after 24 hrs by HPLC-UV method; assay type: ADME, organism-based; parameters: time 24 hrs, dose 20 mg/kg, route po
[6] = Elimination half life in rat at 2 mg/kg, iv measured after 24 hrs by HPLC-UV method; assay type: ADME, organism-based; settings: in vivo, read-out: beta t1/2 (converted)
[7] = Elimination half life in rat at 10 mg/kg, po measured after 24 hrs by HPLC-UV method; assay type: ADME, organism-based; settings: in vivo, read-out: beta t1/2 (converted)
[8] = Elimination half life in rat at 20 mg/kg, po measured after 24 hrs by HPLC-UV method; assay type: ADME, organism-based; settings: in vivo, read-out: beta t1/2 (converted)
[9] = Tmax in rat at 10 mg/kg, po measured after 24 hrs by HPLC-UV method; assay type: ADME, organism-based; settings: in vivo
[10] = Tmax in rat at 20 mg/kg, po measured after 24 hrs by HPLC-UV method; assay type: ADME, organism-based; settings: in vivo
[11] = AUClast in rat at 2 mg/kg, iv measured after 24 hrs by HPLC-UV method; assay type: ADME, organism-based; parameters: time 24 hrs, dose 2 mg/kg, route iv; settings: in vivo
[12] = AUClast in rat at 10 mg/kg, po measured after 24 hrs by HPLC-UV method; assay type: ADME, organism-based; parameters: dose 10 mg/kg, time 24 hrs, route po; settings: in vivo
[13] = AUClast in rat at 20 mg/kg, po measured after 24 hrs by HPLC-UV method; assay type: ADME, organism-based; parameters: dose 20 mg/kg, time 24 hrs, route po; settings: in vivo
[14] = Elimination rate constant in rat at 2 mg/kg, iv measured after 24 hrs by HPLC-UV method; assay type: ADME, organism-based; settings: in vivo, read-out: Ke (converted)
[15] = Elimination rate constant in rat at 10 mg/kg, po measured after 24 hrs by HPLC-UV method; assay type: ADME, organism-based; settings: in vivo, read-out: Ke (converted)
[16] = Elimination rate constant in rat at 20 mg/kg, po measured after 24 hrs by HPLC-UV method; assay type: ADME, organism-based; settings: in vivo, read-out: Ke (converted)
[17] = Volume of distribution in rat at 2 mg/kg, iv measured after 24 hrs by HPLC-UV method; assay type: ADME, organism-based; settings: in vivo
[18] = Apparent volume of distribution in rat at 10 mg/kg, po measured after 24 hrs by HPLC-UV method; assay type: ADME, organism-based; settings: in vivo
[19] = Apparent volume of distribution in rat at 20 mg/kg, po measured after 24 hrs by HPLC-UV method; assay type: ADME, organism-based; settings: in vivo
[20] = Clearance in rat at 2 mg/kg, iv measured after 24 hrs by HPLC-UV method; assay type: ADME, organism-based; settings: in vivo
[21] = Dose normalized clearance in rat at 10 mg/kg, po measured after 24 hrs by HPLC-UV method; assay type: ADME, organism-based; settings: in vivo, read-out: Dose normalized clearance (converted)
[22] = Dose normalized clearance in rat at 20 mg/kg, po measured after 24 hrs by HPLC-UV method; assay type: ADME, organism-based; settings: in vivo
[23] = Oral bioavailability in rat at 10 mg/kg measured after 24 hrs by HPLC-UV method; assay type: ADME, organism-based; settings: in vivo
[24] = Oral bioavailability in rat at 20 mg/kg measured after 24 hrs by HPLC-UV method; assay type: ADME, organism-based; settings: in vivo
[25] = Toxicity in male ICR mouse assessed as survival rate at 1000 mg/kg, po administered as single dose for 14 days; assay type: organism-based; settings: in vivo, time 14 day
[26] = Toxicity in male ICR mouse assessed as survival rate at 300 mg/kg, iv administered as single dose for 14 days; assay type: organism-based; settings: in vivo, time 14 day
[27] = Toxicity in male ICR mouse assessed as survival rate at 300 mg/kg, po administered as single dose for 14 days; assay type: organism-based; settings: in vivo, time 14 day
[28] = Toxicity in male ICR mouse assessed as survival rate at 100 mg/kg, iv administered as single dose for 14 days; assay type: organism-based; settings: in vivo, time 14 day
[29] = Toxicity in male ICR mouse assessed as survival rate at 100 mg/kg, po administered as single dose for 14 days; assay type: organism-based; settings: in vivo, time 14 day
[30] = Toxicity in male ICR mouse assessed as survival rate at 30 mg/kg, iv administered as single dose for 14 days; assay type: organism-based; settings: in vivo, time 14 day
[31] = Toxicity in male ICR mouse assessed as survival rate at 10 mg/kg, iv administered as single dose for 14 days; assay type: organism-based; settings: in vivo, time 14 day
[32] = Toxicity in female ICR mouse assessed as survival rate at 1000 mg/kg, po administered as single dose for 14 days; assay type: organism-based; settings: in vivo, time 14 day
[33] = Toxicity in female ICR mouse assessed as survival rate at 300 mg/kg, iv administered as single dose for 14 days; assay type: organism-based; settings: in vivo, time 14 day
[34] = Toxicity in female ICR mouse assessed as survival rate at 300 mg/kg, po administered as single dose for 14 days; assay type: organism-based; settings: in vivo, time 14 day
[35] = Toxicity in female ICR mouse assessed as survival rate at 100 mg/kg, iv administered as single dose for 14 days; assay type: organism-based; settings: in vivo, time 14 day
[36] = Toxicity in female ICR mouse assessed as survival rate at 100 mg/kg, po administered as single dose for 14 days; assay type: organism-based; settings: in vivo, time 14 day
[37] = Toxicity in female ICR mouse assessed as survival rate at 30 mg/kg, iv administered as single dose for 14 days; assay type: organism-based; settings: in vivo, time 14 day
[38] = Toxicity in female ICR mouse assessed as survival rate at 10 mg/kg, iv administered as single dose for 14 days; assay type: organism-based; settings: in vivo, time 14 day
BV-2 [39] = assay: Inhibition of LPS-induced ROS production in mouse BV-2 cells preincubated for 30 mins followed by LPS addition and measured at 10 sec interval for 15 mins by lucigenin based chemiluminescence assay; assay type: functional, cell-based; settings: dose 1-10000 nM, time 45.0 min
BV-2 [40] = assay: Antiinflammatory activity in mouse BV-2 cells assessed as suppression of LPS-stimulated iNOS production at 10 uM measured after 24 hrs by qPCR analysis; assay type: functional, cell-based
BV-2 [41] = assay: Antiinflammatory activity in mouse BV-2 cells assessed as suppression of LPS-stimulated IL1beta production at 10 uM measured after 24 hrs by qPCR analysis; assay type: functional, cell-based
BV-2 [42] = assay: Antiinflammatory activity in mouse BV-2 cells assessed as suppression of LPS-stimulated TNFalpha production at 10 uM measured after 24 hrs by qPCR analysis; assay type: functional, cell-based
BV-2 [43] = assay: Inhibition of cell migration in LPS-induced mouse BV-2 cells at 10 uM incubated for 24 hrs by crystal violet staining based transwell assay; assay type: functional
Mus musculus [44] = assay: Antineuroinflammatory activity against MPTP induced parkinson's disease in C57BL/6 mouse model assessed as decrease in IbA1+ microglial cells in substantia nigra at 10 mg/kg, po administered for 8 days by immunohistochemistry analysis; assay type: functional, organism-based; settings: time 8.0 day
Mus musculus [45] = assay: Antineuroinflammatory activity against MPTP induced parkinson's disease in C57BL/6 mouse model assessed as decrease in IbA1+ microglial cells in striatum at 10 mg/kg, po administered for 8 days by immunohistochemistry analysis; assay type: functional, organism-based; settings: time 8.0 day
Mus musculus [46] = assay: Antineuroinflammatory activity against MPTP induced parkinson's disease in C57BL/6 mouse model assessed as […] tyrosine hydroxylase positive dopaminergic neuron in substantia nigra at 10 mg/kg, po administered for 8 days by immunohistochemistry analysis; assay type: functional, organism-based; settings: time 8.0 day
Mus musculus [47] = assay: Antineuroinflammatory activity against MPTP induced parkinson's disease in C57BL/6 mouse model assessed as […] tyrosine hydroxylase positive dopaminergic neuron in striatum at 10 mg/kg, po administered for 8 days by immunohistochemistry analysis; assay type: functional, organism-based; settings: time 8.0 day

For CN1C(=S)N(C2CCCCC2)C(=O)/C1=C\c1ccc(N(C)CCO)cc1, the remaining at 0.5 h [1] was 76.3%, the Papp at 4 h [2] was 13.6 ×10⁻⁶ cm/s and the C0 at 24 h [3] was 1700 ng/mL. The Cmax [4] was 609 ng/mL, the Cmax [5] was 783 ng/mL and the half-life [6] was 47.4 min. The half-life [7] was 301 min, the half-life [8] was 368 min and the Tmax [9] was 4.98 min. The Tmax [10] was 40.2 min, the AUC(0-t) at 24 h [11] was 468 ng·h/mL and the AUC(0-t) at 24 h [12] was 1310 ng·h/mL. The AUC(0-t) at 24 h [13] was 4160 ng·h/mL, the k el at 24 h [14] was 0.000367 s⁻¹ and the k el at 24 h [15] was 4.72e-05 s⁻¹. The k el at 24 h [16] was 4.42e-05 s⁻¹, the Vd [17] was 0.211 L and the Vd/F [18] was 1.99 L. The Vd/F [19] was 1.82 L, the clearance [20] was 3.62 mL/min and the CL/F [21] was 5.68 mL/min. It also gave a Dose normalized clearance [22] of 0.217 L/h, a bioavailability [23] of 56% and a bioavailability [24] of 88.9%. For the same compound, the survival at 336 h [25] was 100%, the survival at 336 h [26] was 100% and the survival at 336 h [27] was 100%. It also gave a survival at 336 h [28] of 100%, a survival at 336 h [29] of 100% and a survival at 336 h [30] of 100%. For the same compound, the survival at 336 h [31] was 100%, the survival at 336 h [32] was 100% and the survival at 336 h [33] was 100%. It also gave a survival at 336 h [34] of 100%, a survival at 336 h [35] of 100% and a survival at 336 h [36] of 100%. The survival at 336 h [37] was 100%, the survival at 336 h [38] was 100% and the inhibition (BV-2 [39]) was “Dose-Dependent Effect”. The Activity (BV-2 [40]) was “Active”, the Activity (BV-2 [41]) was “Active” and the Activity (BV-2 [42]) was “Active”. The inhibition (BV-2 [43]) was “Active”, the Activity (Mus musculus [44]) was “Active” and the Activity (Mus musculus [45]) was “Active”. For the same compound, the Activity (Mus musculus [46]) was “Active” and the Activity (Mus musculus [47]) was “Active”.

— ChEMBL document CHEMBL5247616, “Discovery of a NADPH oxidase inhibitor, (E)-3-cyclohexyl-5-(4-((2-hydroxyethyl)(methyl)amino)benzylidene)-1-methyl-2-thioxoimidazolidin-4-oneone, as a novel therapeutic for Parkinson's disease” (Eur J Med Chem, 2022)
